# In PubChem BioAssay AID2060501 (Molecular Pharmacology Branch, DTP, NCI, 2025):
# Tested on: 282377-053-R-J1-PDC complex spheroids, viability
# Experiment: Anticancer human tumor 282377-053-R-J1-PDC patient-derived colon adenocarcinoma cell line growth inhibition [GQUAD]
# Conditions: for IC50: curve of first compound; for viability, T/C: stronger effect = lower value
# Summary of the method: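 Multi-cell-type spheroids of tumor cells with HUVEC and mesenchymal stem cells, treated with drug combinations. Concentrations descend in half-log steps from near clinical Cmax, or from 10 microM where Cmax is unknown; viability read-out.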
# [1] = second compound 0.0316 µM, first compound 0.0316 µM
# [2] = second compound 0.0316 µM, first compound 0.1 µM
# [3] = second compound 0.0316 µM, first compound 0.316 µM
# [4] = second compound 0.0316 µM, first compound 1 µM
# [5] = second compound 0.0316 µM, first compound 3.16 µM
# [6] = second compound 0.0316 µM, first compound 10 µM
# [7] = second compound 0.1 µM, first compound 0.0316 µM
# [8] = second compound 0.1 µM, first compound 0.1 µM
# [9] = second compound 0.1 µM, first compound 0.316 µM
# [10] = second compound 0.1 µM, first compound 1 µM
# [11] = second compound 0.1 µM, first compound 3.16 µM
# [12] = second compound 0.1 µM, first compound 10 µM
# [13] = second compound 0.316 µM, first compound 0.0316 µM
# [14] = second compound 0.316 µM, first compound 0.1 µM
# [15] = second compound 0.316 µM, first compound 0.316 µM
# [16] = second compound 0.316 µM, first compound 1 µM
# [17] = second compound 0.316 µM, first compound 3.16 µM
# [18] = second compound 0.316 µM, first compound 10 µM
# [19] = second compound 1 µM, first compound 0.0316 µM
# [20] = second compound 1 µM, first compound 0.1 µM
# [21] = second compound 1 µM, first compound 0.316 µM
# [22] = second compound 1 µM, first compound 1 µM
# [23] = second compound 1 µM, first compound 3.16 µM
# [24] = second compound 1 µM, first compound 10 µM
# [25] = second compound 3.16 µM, first compound 0.0316 µM
# [26] = second compound 3.16 µM, first compound 0.1 µM
# [27] = second compound 3.16 µM, first compound 0.316 µM
# [28] = second compound 3.16 µM, first compound 1 µM
# [29] = second compound 3.16 µM, first compound 3.16 µM
# [30] = second compound 3.16 µM, first compound 10 µM
# [31] = second compound 10 µM, first compound 0.0316 µM
# [32] = second compound 10 µM, first compound 0.1 µM
# [33] = second compound 10 µM, first compound 0.316 µM
# [34] = second compound 10 µM, first compound 1 µM
# [35] = second compound 10 µM, first compound 3.16 µM
# [36] = second compound 10 µM, first compound 10 µM
# 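Further: spheroids exposed to compounds for 7 days before readout.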
# 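Wherever viability, T/C is given: percent of vehicle DMSO control viability with 100% = untreated-like growth.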
smiles,measurement,setting,value
COc1ncnc(C2CC2)c1-c1ncc2cnn(Cc3ccc(-c4nc(C(F)(F)F)cn4C(C)C)cc3)c2n1 + CN(C)c1ccc(Nc2c3ccc(NC(=O)CCN4CCCC4)cc3nc3cc(NC(=O)CCN4CCCC4)ccc23)cc1,IC50,second compound 0.0316 µM,> 10000 nM
same,IC50,second compound 0.1 µM,> 10000 nM
same,IC50,second compound 0.316 µM,> 10000 nM
same,IC50,second compound 1 µM,> 10000 nM
same,IC50,second compound 3.16 µM,> 10000 nM
same,IC50,second compound 10 µM,> 10000 nM
same,"viability, T/C",[1],108%
same,"viability, T/C",[2],83.7%
same,"viability, T/C",[3],95.1%
same,"viability, T/C",[4],76.5%
same,"viability, T/C",[5],88.1%
same,"viability, T/C",[6],66.2%
same,"viability, T/C",[7],97.1%
same,"viability, T/C",[8],90.2%
same,"viability, T/C",[9],102%
same,"viability, T/C",[10],87.6%
same,"viability, T/C",[11],81.4%
same,"viability, T/C",[12],76.7%
same,"viability, T/C",[13],88.3%
same,"viability, T/C",[14],95.8%
same,"viability, T/C",[15],86.6%
same,"viability, T/C",[16],78.5%
same,"viability, T/C",[17],87.6%
same,"viability, T/C",[18],77.8%
same,"viability, T/C",[19],84.5%
same,"viability, T/C",[20],83.4%
same,"viability, T/C",[21],93%
same,"viability, T/C",[22],75.4%
same,"viability, T/C",[23],79.6%
same,"viability, T/C",[24],80.8%
same,"viability, T/C",[25],92.1%
same,"viability, T/C",[26],85.8%
same,"viability, T/C",[27],88.2%
same,"viability, T/C",[28],86.4%
same,"viability, T/C",[29],75%
same,"viability, T/C",[30],77.7%
same,"viability, T/C",[31],85.4%
same,"viability, T/C",[32],66.8%
same,"viability, T/C",[33],74.8%
same,"viability, T/C",[34],66.3%
same,"viability, T/C",[35],94.8%
same,"viability, T/C",[36],82.3%
CC1COCCN1c1cc(C2(O)CC3CCC(C2)O3)c2cnn(-c3ccn[nH]3)c2n1 (centres undefined) + Cc1[nH]c2ccc(F)cc2c1-c1nc2c3cccnc3c3ncccc3c2[nH]1,IC50,second compound 0.0316 µM,626 nM
same,IC50,second compound 0.1 µM,509 nM
same,IC50,second compound 0.316 µM,293 nM
same,IC50,second compound 1 µM,248 nM
same,IC50,second compound 3.16 µM,35 nM
same,IC50,second compound 10 µM,< 31.6 nM
same,"viability, T/C",[1],81.3%
same,"viability, T/C",[2],73.1%
same,"viability, T/C",[3],71.7%
same,"viability, T/C",[4],35%
same,"viability, T/C",[5],25.7%
same,"viability, T/C",[6],17.6%
same,"viability, T/C",[7],88.2%
same,"viability, T/C",[8],85.7%
same,"viability, T/C",[9],59.6%
same,"viability, T/C",[10],34.1%
same,"viability, T/C",[11],25.6%
same,"viability, T/C",[12],16.6%
same,"viability, T/C",[13],71.5%
same,"viability, T/C",[14],88.2%
same,"viability, T/C",[15],47.8%
same,"viability, T/C",[16],35.2%
same,"viability, T/C",[17],24.7%
same,"viability, T/C",[18],16.2%
same,"viability, T/C",[19],71.7%
same,"viability, T/C",[20],65.5%
same,"viability, T/C",[21],45.4%
same,"viability, T/C",[22],25.4%
same,"viability, T/C",[23],16.4%
same,"viability, T/C",[24],9.51%
same,"viability, T/C",[25],52%
same,"viability, T/C",[26],28.9%
same,"viability, T/C",[27],11.3%
same,"viability, T/C",[28],5.76%
same,"viability, T/C",[29],3.99%
same,"viability, T/C",[30],3.21%
same,"viability, T/C",[31],31.2%
same,"viability, T/C",[32],16.5%
same,"viability, T/C",[33],8.68%
same,"viability, T/C",[34],2.7%
same,"viability, T/C",[35],2.23%
same,"viability, T/C",[36],2.03%
